# Results published in PubChem BioAssay (NCI).
# “And” between values parts separate entries of the source, which are not always exact repeats. Equal entries are not always repeated.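 Five concentrations, 48 hours, 96-well plates. GI50 marks 50% less growth. At the TGI there is no net growth.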
# Columns and labels:
# Test in all cases: NCI tumour cell line growth inhibition, 48 h
# [1] = system: COLO 205 colon
# [2] = system: NCI-H23 lung
# [3] = system: K-562 leukemia
# [4] = system: SK-MEL-28 melanoma
# [5] = system: NCI-H226 lung
# [6] = system: MOLT-4 leukemia
# [7] = system: SNB-19 CNS
# [8] = system: A549 NSCLC
# [9] = system: MDA-MB-435
# [10] = system: TK-10 renal
SMILES,TGI [1] [µM],TGI [2] [µM],TGI [3] [µM],TGI [4] [µM],TGI [5] [µM],TGI [6] [µM],TGI [7],TGI [8] [µM],GI50 [1] [µM],GI50 [2] [µM],GI50 [3],GI50 [9] [µM],TGI [9] [µM],GI50 [4] [µM],GI50 [5] [µM],GI50 [6],GI50 [7] [µM],GI50 [8] [µM],GI50 [10] [µM],TGI [10] [µM]
C[N+](C)(C)CC1CCC/C1=N\OC(=O)c1ccccc1 (stereo not drawn),> 100,> 100,> 100,> 100,> 100,> 100,> 100 µM,> 100,,,,,,,,,,,,
Cc1nc2cc(Nc3nc(Nc4ccc(F)cc4)nc(-c4cccs4)n3)ccc2n1Cc1ccccc1,12.9,32.7,20.6,> 100,36.5,9.3,> 100 µM,15.1,3.7,5.87,3.07 µM,3.85,35.2,9.47,8.23,2.97 µM,5.29,2.98,,
COc1cc(/C=C\c2cc(OC)c(OC)c(OC)c2)cc(N/C=C\C(=O)c2cc(OC)c(OC)c(OC)c2)c1OC,5.7,> 100,> 100,> 100,> 100,> 100,> 100 µM,> 100,2.31,4.22,3.38 µM,,,4.28,5.46,4.62 µM,4.49,5.14,5.93,> 100
CS/C(=C(\S)c1ccccc1)c1ccccc1,> 100,> 100,> 100,> 100,> 100,,> 100 µM,> 100,,,,,,,,,,,,> 100
Cc1ccc(Nc2oc(-c3ccccc3)nc2[P+](c2ccccc2)(c2ccccc2)c2ccccc2)cc1,3.1,2.08,1.44,2.55,,2.52,2.94 µM,3.23,1.33,0.458,0.324 µM,0.606,1.97,1.19,,0.563 µM,1.04,0.938,1.37,2.93
CC(=O)N1CCC(=O)/C(=C/c2ccccc2)C1,> 100,> 100,> 100,38.3,> 100,> 100,> 100 µM,> 100,,,,,,,,,,,,> 100
CC1(C)CC(=O)CC(=Nc2ccc([N+](=O)[O-])cc2)C1,> 100,> 100,> 100,> 100,> 100,> 100,,> 100,,,,,,,,,,,,> 100
C[C@]12CCC(=O)C=C1CC[C@@H]1C2CC[C@]2(C)Nc3[nH]ncc3CC12 (stereo partly drawn),,> 100,> 100,> 100,> 100,> 100,,> 100,,,,,,,,,,,,> 100
Nc1ccn(C2OC(CO)C(O)C2O)c(=O)n1 (stereo not drawn),> 500,,> 500,> 500,> 500,,> 100 µM and 469 µM and > 500 µM,,,,0.477 µM and 0.464 µM and 4.64 µM,0.671,> 500,,0.637,0.0103 µM and 0.0148 µM,2.19,0.422,,> 500
COC(=O)C1=C(C(=O)OC)C2=S(SC3=C2CCCC3)S1 (stereo not drawn),> 100,> 100,25.8,> 100,,> 100,> 100 µM,> 100,,,,,,,,,,,,> 100
CN(C)CCC(=O)C(=Cc1ccc(O)cc1)C(=O)CCN(C)C,> 100,> 100,,> 100,> 100,> 100,> 100 µM,> 100,50.9,> 100,,> 100,> 100,> 100,> 100,80 µM,> 100,> 100,> 100,> 100
CCCCCCCN=C(N)c1ccc(N2CCN(c3ccc(C(N)=NCCCCCCC)cc3)CC2)cc1,> 52.6,,> 9.41,> 22.4,> 100,> 100,17.4 µM,15,1.54,,0.147 µM,0.0254,0.0992,2.08,2.13,2.71 µM,0.643,0.26,0.146,1.93
CCN(CC)CCSc1c2ccccc2nc2c(OC)ccc(OC)c12,,27.9,> 24.5,8.91,50.7,3.84,> 100 µM,50.1,,,,,,,,,,,,17.3
Cn1cc(-c2csc(-c3c[nH]c4ccc(Br)cc34)n2)c2cnccc21,,8.79,1.28,3.31,6,,> 100 µM,11.5,,2.73,0.345 µM,,,1.7,2.34,,3.67,2.81,1.97,5.84
S=c1[nH]c2c(Cl)c(Cl)c(Cl)c(Cl)c2[nH]1,32.3,> 100,38.4,,,78,81.3 µM,> 100,,,,,48.8,,,,,,,55.4
CN(C)c1ncnc2c1ncn2CCn1cnc2c(N(C)C)ncnc21,> 100,> 100,,> 100,,,> 100 µM,> 100,,,,,> 100,,,,,,,> 100
CN(C)CCNC(=O)c1cccc2c(Nc3ccc(S(=O)(=O)N=C(N)N)cc3)c3ccccc3nc12,32.2,> 100,77.4,71.2,10.1,6.83,17.9 µM,48.4,,,,,,,,,,,,> 100
Cn1c2ccccc2c2ncc3[nH]c4ccccc4c3c21,39.1,43.7,95.5,31.7,51.8,67.4,> 100 µM,49.6,,,,,,,,,,,,45.1
CCOC(=O)C1SC(=Nc2ccccc2)N=C1C (stereo not drawn),> 100,> 100,> 100,> 100,> 100,> 100,> 100 µM,> 100,,,,,,,,,,,,> 100
O=[N+]([O-])c1ccc(-c2cnc3ccccn23)cc1,> 100,> 100,> 100,> 100,> 100,> 100,> 100 µM,> 100,,,,,,,,,,,,
